Measured values: US20240174690A1, “ANNULATED 2-AMINO-3-CYANO THIOPHENES AND DERIVATIVES FOR THE TREATMENT OF CANCER” (BOEHRINGER INGELHEIM INTERNATIONAL GMBH, priority 2021, published 2024)
Where two headings read alike, the source gives them in different places.

Assays:
KRAS (G12C)::SOS1 = KRAS (G12C)::SOS1 (Homo sapiens (Human), UniProt P01116, C118S/C51S/C80L/G12C); assay: KRAS::SOS1 AlphaScreen binding assay, KRAS G12C
Method in brief: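 Compounds (up to 100 μM, eleven fivefold dilutions in duplicate) were incubated 30 min with KRAS 1-169 (10 nM, or 7.5 nM for G12C), GST-SOS1 564-1049 (5 nM for G12D/G12C, 10 nM for others) and 10 μM GDP in PBS buffer with BSA and Tween. Donor/acceptor beads were then added for 60 min at room temperature, and IC50 came from a 4-parameter fit of the AlphaScreen signal.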

NCI-H358 cells = assay: NCI-H358 CTG proliferation assay (120 h) (NSCLC, G12C); type: cell-based, human; settings: Homo sapiens
Method in brief: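 NCI-H358 cells (KRAS G12C) were seeded at 2000/well (assay 1) or 200/well (assay 2) in RPMI-1640 + 10% FCS and dosed with a logarithmic series, DMSO-normalized. After 120 h, viability was read by CellTiter-Glo luminescence as percent of DMSO control, with a T0 read at dosing. IC50 came from a four-parameter fit.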

LOVO cells = assay: LOVO CTG proliferation assay (120 h) (CRC, G13D); type: cell-based; settings: Homo sapiens, CTG 120 h
Method in brief: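 LOVO cells, 1000 per well in DMEM + 10% FCS, were plated overnight and then dosed with compound from DMSO stock. After 120 h at 37 °C, viability was read by CellTiter-Glo luminescence as a percentage of DMSO controls. IC50 was derived by four-parameter non-linear regression.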

[1] = assay 2, CTG, read-out: H358 (assay 2) IC50
[2] = assay 1, CTG, read-out: H358 (assay 1) IC50

KRAS (G12C)::SOS1, sequence (P01116 other isoform, or with tags, fused parts or gaps G12C/C51S/C80L/C118S): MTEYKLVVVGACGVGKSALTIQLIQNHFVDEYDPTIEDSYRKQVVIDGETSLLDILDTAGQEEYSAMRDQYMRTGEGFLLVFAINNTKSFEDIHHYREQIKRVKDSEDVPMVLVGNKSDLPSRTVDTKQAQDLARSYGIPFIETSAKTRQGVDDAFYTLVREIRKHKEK

Row | Compound | IC50 (KRAS (G12C)::SOS1) | IC50 (NCI-H358 cells; [1]) | IC50 (LOVO cells) | IC50 (NCI-H358 cells; [2])
1 | C[C@H](Oc1cc(N2CCNC3(CC3)C2)nc(-c2noc3c2CCC[C@@]32CCCc3sc(N)c(C#N)c32)n1)[C@@H]1C[C@@H](F)CN1C [II-165] | 3 nM | 166 nM | 303 nM | –
2 | CO[C@@H]1C[C@@H]([C@H](C)Oc2cc(N3CCN(C)C4(CC4)C3)nc(-c3noc4c3CCC[C@@]43CCCc4sc(N)c(C#N)c43)n2)N(C)C1 [II-152] | 7 nM | 926 nM | 650 nM | –
3 | C[C@H]1CNCCCN1c1cc(-n2ccnc2)nc(-c2noc3c2CCC[C@@]32CCCc3sc(N)c(C#N)c32)n1 [II-142] | 5 nM | 10800 nM | 2640 nM | –
4 | C[C@H](Oc1cc(N2CCOC2=O)nc(-c2noc3c2CCC[C@@]32CCCc3sc(N)c(C#N)c32)n1)[C@@H]1CCCN1C [II-143] | 2 nM | – | 96 nM | 25 nM
5 | C[C@H](Oc1cc(N2CCNC[C@@]23CCOC3)nc(-c2onc3c2CCC[C@@]32CCCc3sc(N)c(C#N)c32)n1)[C@@H]1CCCN1C [I-13] | 7 nM | 4280 nM | 1510 nM | –
6 | C[C@H](NC(=O)c1ccn(-c2cc(O[C@@H](C)[C@@H]3CCCN3C)nc(-c3noc4c3CCC[C@@]43CCCc4sc(N)c(C#N)c43)n2)n1)c1ccccn1 [II-191] | 2 nM | 3 nM | 13 nM | –
7 | C[C@H](Oc1nc(-c2noc3c2CCC[C@@]32CCCc3sc(N)c(C#N)c32)nc(N2CCN(C)C3(CC3)C2)c1Cl)[C@@H]1C[C@@H](F)CN1C [II-176] | 15 nM | 1640 nM | 2680 nM | –
8 | C[C@H](Oc1cc(-n2cnc(C(=O)N(C)C)c2)nc(-c2noc3c2CCC[C@@]32CCCc3sc(N)c(C#N)c32)n1)[C@@H]1CCCN1C [II-126] | 2 nM | 1680 nM | 251 nM | –
9 | CO[C@H]1CCN(C)[C@@H]1[C@H](C)Oc1cc(N2CCN(C)C3(CC3)C2)nc(-c2noc3c2CCC[C@@]32CCCc3sc(N)c(C#N)c32)n1 [II-186] | 3 nM | 273 nM | 357 nM | –

The remaining molecules from weak to strong by IC50 (KRAS (G12C)::SOS1), led by results:

Row | IC50 (KRAS (G12C)::SOS1) | IC50 (NCI-H358 cells; [1]) | IC50 (LOVO cells) | IC50 (NCI-H358 cells; [2]) | Compound
10 | 2 nM | 95 nM | 325 nM | – | CO[C@H]1CCN(C)[C@@H]1[C@H](C)Oc1cc(N2CCNC3(CC3)C2)nc(-c2noc3c2CCC[C@@]32CCCc3sc(N)c(C#N)c32)n1 [II-184]
11 | 2 nM | 1 nM | 117 nM | – | C[C@H](Oc1cc(-n2ccc(-c3cn(CC4(C)COC4)nn3)n2)nc(-c2noc3c2CCC[C@@]32CCCc3sc(N)c(C#N)c32)n1)[C@@H]1CCCN1C [II-213]
12 | 2 nM | 31 nM | 356 nM | – | COc1c(O[C@@H](C)[C@@H]2CCCN2C)nc(-c2noc3c2CCC[C@@]32CCCc3sc(N)c(C#N)c32)nc1-n1ccc(C(N)=O)n1 [II-159]
13 | 2 nM | 9 nM | 459 nM | 74 nM | C[C@H](Oc1cc(-c2cccc(C(N)=O)c2)nc(-c2noc3c2CCC[C@@]32CCCc3sc(N)c(C#N)c32)n1)[C@@H]1CCCN1C [II-133]
14 | 2 nM | 28 nM | 190 nM | 25 nM | C[C@H](Oc1cc(-n2ccc(-c3cnccn3)n2)nc(-c2noc3c2CCC[C@@]32CCCc3sc(N)c(C#N)c32)n1)[C@@H]1CCCN1C [II-130]
15 | 2 nM | 58 nM | 84 nM | – | C[C@@H]1CN(c2nc(-c3noc4c3CCC[C@@]43CCCc4sc(N)c(C#N)c43)nc(O[C@@H](C)[C@@H]3C[C@@H](F)CN3C)c2F)CC2(CC2)N1 [II-158]
16 | 2 nM | 230 nM | 226 nM | – | C[C@H](Oc1nc(-c2noc3c2CCC[C@@]32CCCc3sc(N)c(C#N)c32)nc(N2CCNC3(CC3)C2)c1Cl)[C@@H]1C[C@@H](F)CN1C [II-156]
17 | 2 nM | 324 nM | 120 nM | – | C[C@H](Oc1cc(-n2cc(C(=O)N(C)C)nn2)nc(-c2noc3c2CCC[C@@]32CCCc3sc(N)c(C#N)c32)n1)[C@@H]1CCCN1C [II-132]
18 | 1 nM | 6 nM | 33 nM | – | CO[C@H]1CCN(C)[C@@H]1[C@H](C)Oc1cc(-n2ccc(C(N)=O)n2)nc(-c2noc3c2CCC[C@@]32CCCc3sc(N)c(C#N)c32)n1 [II-201]
19 | 1 nM | 5 nM | 46 nM | – | C[C@H](Oc1cc(-n2cc3ccn(C[C@H]4CCOC4)c(=O)c3n2)nc(-c2noc3c2CCC[C@@]32CCCc3sc(N)c(C#N)c32)n1)[C@@H]1CCCN1C [II-204]
20 | 1 nM | 4 nM | 12 nM | – | COCCNC(=O)c1ccn(-c2cc(O[C@@H](C)[C@@H]3CCCN3C)nc(-c3noc4c3CCC[C@@]43CCCc4sc(N)c(C#N)c43)n2)n1 [II-195]
